Test results: article doi:10.1101/2024.08.13.607785v1 (biorxiv, 2024)
One block for each molecule: values may come before it.

Legend:
[1] = molecular target: Cyclin-dependent kinase 6 ; CDK6 ; Q00534 (Homo sapiens, UniProt Q00534); test: biochemical; design: species or system human cell line lysate
[2] = molecular target: Cyclin-dependent kinase 1 ; CDK1 ; P06493 (Homo sapiens, UniProt P06493); test: biochemical; design: species or system human cell line lysate
[3] = molecular target: Cyclin-dependent kinase 10 ; CDK10 ; Q15131 (Homo sapiens, UniProt Q15131); test: biochemical; design: species or system human cell line lysate
[4] = molecular target: LIM domain kinase 2 ; LIMK2 ; P53671 (Homo sapiens, UniProt P53671); design: species or system mixed lysate of K562, MV4-11, THP-1, NCI-H1155; settings: DIA-MS residual binding; binder
[5] = molecular target: Ephrin type-A receptor 1 ; EPHA1 ; P21709 (Homo sapiens, UniProt P21709); design: species or system mixed lysate of K562, MV4-11, THP-1, NCI-H1155; settings: DIA-MS residual binding; binder
[6] = molecular target: T1, Serine/threonine-protein kinase NLK ; NLK ; Q9UBE8 (Homo sapiens, UniProt Q9UBE8); design: species or system mixed lysate of K562, MV4-11, THP-1, NCI-H1155; settings: DIA-MS residual binding; binder
T1 sequence (Q9UBE8 1-527): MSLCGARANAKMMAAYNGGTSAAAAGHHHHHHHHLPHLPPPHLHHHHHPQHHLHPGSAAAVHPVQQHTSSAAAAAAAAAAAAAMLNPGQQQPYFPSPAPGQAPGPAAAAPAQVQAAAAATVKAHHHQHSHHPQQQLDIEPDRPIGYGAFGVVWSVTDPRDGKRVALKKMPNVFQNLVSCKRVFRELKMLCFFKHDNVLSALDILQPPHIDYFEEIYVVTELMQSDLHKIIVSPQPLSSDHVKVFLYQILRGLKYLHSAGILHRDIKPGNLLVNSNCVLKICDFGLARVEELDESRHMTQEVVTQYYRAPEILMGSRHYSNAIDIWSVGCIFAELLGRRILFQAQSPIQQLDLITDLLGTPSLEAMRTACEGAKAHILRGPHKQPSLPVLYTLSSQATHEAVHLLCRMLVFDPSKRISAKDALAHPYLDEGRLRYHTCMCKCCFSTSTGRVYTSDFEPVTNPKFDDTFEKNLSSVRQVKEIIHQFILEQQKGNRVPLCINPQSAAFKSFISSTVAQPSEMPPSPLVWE

[7] = molecular target: T2, Dual specificity mitogen-activated protein kinase kinase 5 ; MAP2K5 ; Q13163 (Homo sapiens, UniProt Q13163); design: species or system mixed lysate of K562, MV4-11, THP-1, NCI-H1155; settings: DIA-MS residual binding; binder
T2 sequence (Q13163 1-448): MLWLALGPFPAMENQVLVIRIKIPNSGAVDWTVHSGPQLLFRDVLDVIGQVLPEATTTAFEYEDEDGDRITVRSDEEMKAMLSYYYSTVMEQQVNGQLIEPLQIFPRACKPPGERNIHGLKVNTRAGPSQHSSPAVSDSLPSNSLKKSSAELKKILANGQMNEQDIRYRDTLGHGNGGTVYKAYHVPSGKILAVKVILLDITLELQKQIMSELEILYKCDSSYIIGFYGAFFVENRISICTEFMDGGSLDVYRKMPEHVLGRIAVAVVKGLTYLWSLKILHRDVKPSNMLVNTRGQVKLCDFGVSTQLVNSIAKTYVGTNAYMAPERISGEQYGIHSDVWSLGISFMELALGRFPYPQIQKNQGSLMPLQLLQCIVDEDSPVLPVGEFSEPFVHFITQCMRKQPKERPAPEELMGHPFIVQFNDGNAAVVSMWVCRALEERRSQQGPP

[8] = molecular target: LIM domain kinase 1 ; LIMK1 ; P53667 (Homo sapiens, UniProt P53667); design: species or system mixed lysate of K562, MV4-11, THP-1, NCI-H1155; settings: DIA-MS residual binding; binder
[9] = molecular target: Mitogen-activated protein kinase kinase kinase 4 ; MAP3K4 ; Q9Y6R4 (Homo sapiens, UniProt Q9Y6R4); design: species or system mixed lysate of K562, MV4-11, THP-1, NCI-H1155; settings: binder
[10] = molecular target: Isoform 2 of Tyrosine-protein kinase Lyn ; LYN-2 ; P07948-2 (Homo sapiens, UniProt P07948); design: species or system mixed lysate of K562, MV4-11, THP-1, NCI-H1155; settings: DIA-MS residual binding; binder
[11] = molecular target: Cyclin-dependent kinase 12 ; CDK12 ; Q9NYV4 (Homo sapiens, UniProt Q9NYV4); test: biochemical; design: species or system human cell line lysate
[12] = molecular target: Isoform 2 of Cyclin-dependent kinase 17 ; CDK17 ; Q00537-2 (Homo sapiens, UniProt Q00537); test: biochemical; design: species or system human cell line lysate
Sequence of Isoform 2 of Cyclin-dependent kinase 17 ; CDK17 ; Q00537-2 (Q00537 whole entry, canonical isoform, one chain of several): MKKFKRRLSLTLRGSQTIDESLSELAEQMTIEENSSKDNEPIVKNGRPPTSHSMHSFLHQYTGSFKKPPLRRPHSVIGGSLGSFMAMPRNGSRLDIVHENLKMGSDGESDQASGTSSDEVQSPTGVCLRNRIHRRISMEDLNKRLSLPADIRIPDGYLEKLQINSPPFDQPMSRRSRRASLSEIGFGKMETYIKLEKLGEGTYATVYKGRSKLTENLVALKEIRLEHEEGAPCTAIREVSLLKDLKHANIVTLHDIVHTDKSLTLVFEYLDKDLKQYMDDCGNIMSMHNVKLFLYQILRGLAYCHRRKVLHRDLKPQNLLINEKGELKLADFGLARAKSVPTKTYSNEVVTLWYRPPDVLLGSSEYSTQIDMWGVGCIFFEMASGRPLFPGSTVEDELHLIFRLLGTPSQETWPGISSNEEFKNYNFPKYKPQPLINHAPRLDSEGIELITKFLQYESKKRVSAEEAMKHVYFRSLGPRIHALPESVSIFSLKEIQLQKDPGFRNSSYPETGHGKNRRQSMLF

Sequence of Cyclin-dependent kinase 12 ; CDK12 ; Q9NYV4 (Q9NYV4 whole entry, canonical isoform, one chain of several): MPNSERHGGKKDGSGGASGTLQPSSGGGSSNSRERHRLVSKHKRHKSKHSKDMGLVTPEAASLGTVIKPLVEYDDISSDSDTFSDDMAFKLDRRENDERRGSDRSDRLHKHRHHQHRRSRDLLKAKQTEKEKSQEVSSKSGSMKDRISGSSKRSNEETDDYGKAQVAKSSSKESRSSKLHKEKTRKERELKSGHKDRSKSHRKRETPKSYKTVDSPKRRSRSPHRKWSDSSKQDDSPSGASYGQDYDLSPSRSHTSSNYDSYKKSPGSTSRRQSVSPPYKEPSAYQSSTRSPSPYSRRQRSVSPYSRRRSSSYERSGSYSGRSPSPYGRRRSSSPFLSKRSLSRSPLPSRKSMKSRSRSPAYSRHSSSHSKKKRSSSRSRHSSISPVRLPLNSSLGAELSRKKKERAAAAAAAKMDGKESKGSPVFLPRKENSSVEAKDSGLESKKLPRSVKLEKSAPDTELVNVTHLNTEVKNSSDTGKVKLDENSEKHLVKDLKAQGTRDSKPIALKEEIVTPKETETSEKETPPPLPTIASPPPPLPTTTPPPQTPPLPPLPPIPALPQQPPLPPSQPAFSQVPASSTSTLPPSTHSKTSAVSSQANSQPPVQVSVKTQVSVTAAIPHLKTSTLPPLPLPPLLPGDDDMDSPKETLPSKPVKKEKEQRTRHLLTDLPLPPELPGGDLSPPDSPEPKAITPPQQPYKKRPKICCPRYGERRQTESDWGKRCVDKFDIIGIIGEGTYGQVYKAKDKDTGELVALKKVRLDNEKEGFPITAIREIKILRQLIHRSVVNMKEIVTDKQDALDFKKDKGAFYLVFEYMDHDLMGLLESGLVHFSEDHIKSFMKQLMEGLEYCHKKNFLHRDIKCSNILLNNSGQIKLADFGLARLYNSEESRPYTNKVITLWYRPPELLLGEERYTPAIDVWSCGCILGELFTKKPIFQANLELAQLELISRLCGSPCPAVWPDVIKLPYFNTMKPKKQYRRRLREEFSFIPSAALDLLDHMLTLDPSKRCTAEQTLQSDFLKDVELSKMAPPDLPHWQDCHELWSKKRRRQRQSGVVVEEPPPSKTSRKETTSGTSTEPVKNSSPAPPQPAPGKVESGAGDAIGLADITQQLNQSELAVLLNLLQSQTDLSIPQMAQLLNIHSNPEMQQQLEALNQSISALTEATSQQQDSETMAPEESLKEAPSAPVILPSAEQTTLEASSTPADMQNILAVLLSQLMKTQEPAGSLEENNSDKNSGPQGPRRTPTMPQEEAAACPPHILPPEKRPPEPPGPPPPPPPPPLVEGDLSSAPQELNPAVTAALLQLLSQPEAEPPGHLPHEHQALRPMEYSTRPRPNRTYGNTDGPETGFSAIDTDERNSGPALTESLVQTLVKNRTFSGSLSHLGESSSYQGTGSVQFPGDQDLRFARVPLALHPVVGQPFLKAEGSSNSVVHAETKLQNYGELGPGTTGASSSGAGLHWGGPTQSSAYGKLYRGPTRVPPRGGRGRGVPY
Sequence of Isoform 2 of Tyrosine-protein kinase Lyn ; LYN-2 ; P07948-2 (P07948 whole entry, canonical isoform): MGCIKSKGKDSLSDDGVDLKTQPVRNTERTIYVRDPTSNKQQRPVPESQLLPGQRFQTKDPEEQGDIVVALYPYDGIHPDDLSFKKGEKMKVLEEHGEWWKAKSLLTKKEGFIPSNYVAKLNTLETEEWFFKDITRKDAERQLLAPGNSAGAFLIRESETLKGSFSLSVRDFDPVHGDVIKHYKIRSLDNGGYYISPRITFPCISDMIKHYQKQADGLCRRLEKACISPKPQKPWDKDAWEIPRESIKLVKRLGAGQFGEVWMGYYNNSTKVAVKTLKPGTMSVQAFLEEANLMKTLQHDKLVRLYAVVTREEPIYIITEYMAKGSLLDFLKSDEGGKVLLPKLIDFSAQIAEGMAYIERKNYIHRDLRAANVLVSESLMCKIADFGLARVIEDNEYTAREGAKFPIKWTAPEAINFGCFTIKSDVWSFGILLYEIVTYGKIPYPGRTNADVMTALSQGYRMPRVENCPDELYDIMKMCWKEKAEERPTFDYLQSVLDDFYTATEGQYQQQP
Sequence of Cyclin-dependent kinase 6 ; CDK6 ; Q00534 (Q00534 whole entry, one chain of several): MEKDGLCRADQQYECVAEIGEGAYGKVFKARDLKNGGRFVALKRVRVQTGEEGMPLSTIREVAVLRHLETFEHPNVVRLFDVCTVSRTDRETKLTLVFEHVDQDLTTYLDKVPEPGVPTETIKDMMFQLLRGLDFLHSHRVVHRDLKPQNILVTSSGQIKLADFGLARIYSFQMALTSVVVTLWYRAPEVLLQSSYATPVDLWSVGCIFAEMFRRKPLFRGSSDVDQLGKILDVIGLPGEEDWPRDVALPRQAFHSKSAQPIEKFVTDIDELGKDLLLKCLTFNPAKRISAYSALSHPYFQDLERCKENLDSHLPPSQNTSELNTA
Sequence of LIM domain kinase 2 ; LIMK2 ; P53671 (P53671 whole entry, the tested form may be a part): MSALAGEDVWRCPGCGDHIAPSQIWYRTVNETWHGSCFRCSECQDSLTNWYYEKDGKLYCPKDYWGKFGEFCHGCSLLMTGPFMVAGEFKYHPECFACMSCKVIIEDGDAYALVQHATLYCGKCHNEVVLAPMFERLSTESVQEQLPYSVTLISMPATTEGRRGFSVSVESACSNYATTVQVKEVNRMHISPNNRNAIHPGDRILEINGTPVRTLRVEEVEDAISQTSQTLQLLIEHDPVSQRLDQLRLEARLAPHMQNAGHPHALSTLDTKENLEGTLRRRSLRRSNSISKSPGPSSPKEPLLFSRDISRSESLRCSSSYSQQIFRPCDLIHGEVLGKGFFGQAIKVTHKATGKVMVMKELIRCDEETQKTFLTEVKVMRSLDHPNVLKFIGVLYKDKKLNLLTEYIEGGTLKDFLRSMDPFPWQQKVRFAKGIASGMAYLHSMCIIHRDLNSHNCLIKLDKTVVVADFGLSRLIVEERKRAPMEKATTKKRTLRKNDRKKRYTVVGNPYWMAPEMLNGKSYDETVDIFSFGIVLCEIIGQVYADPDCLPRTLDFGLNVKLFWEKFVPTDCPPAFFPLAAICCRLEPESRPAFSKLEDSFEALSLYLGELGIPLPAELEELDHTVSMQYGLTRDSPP
Sequence of Cyclin-dependent kinase 1 ; CDK1 ; P06493 (P06493 whole entry, one chain of several): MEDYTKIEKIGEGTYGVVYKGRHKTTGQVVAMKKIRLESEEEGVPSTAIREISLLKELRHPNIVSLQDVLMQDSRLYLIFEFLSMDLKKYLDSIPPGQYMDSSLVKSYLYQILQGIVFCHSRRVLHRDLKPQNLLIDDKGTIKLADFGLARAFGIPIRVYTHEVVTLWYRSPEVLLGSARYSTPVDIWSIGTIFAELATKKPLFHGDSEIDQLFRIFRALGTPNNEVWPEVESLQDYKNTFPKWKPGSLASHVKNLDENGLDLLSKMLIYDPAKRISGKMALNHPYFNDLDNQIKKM
Sequence of Ephrin type-A receptor 1 ; EPHA1 ; P21709 (P21709 whole entry): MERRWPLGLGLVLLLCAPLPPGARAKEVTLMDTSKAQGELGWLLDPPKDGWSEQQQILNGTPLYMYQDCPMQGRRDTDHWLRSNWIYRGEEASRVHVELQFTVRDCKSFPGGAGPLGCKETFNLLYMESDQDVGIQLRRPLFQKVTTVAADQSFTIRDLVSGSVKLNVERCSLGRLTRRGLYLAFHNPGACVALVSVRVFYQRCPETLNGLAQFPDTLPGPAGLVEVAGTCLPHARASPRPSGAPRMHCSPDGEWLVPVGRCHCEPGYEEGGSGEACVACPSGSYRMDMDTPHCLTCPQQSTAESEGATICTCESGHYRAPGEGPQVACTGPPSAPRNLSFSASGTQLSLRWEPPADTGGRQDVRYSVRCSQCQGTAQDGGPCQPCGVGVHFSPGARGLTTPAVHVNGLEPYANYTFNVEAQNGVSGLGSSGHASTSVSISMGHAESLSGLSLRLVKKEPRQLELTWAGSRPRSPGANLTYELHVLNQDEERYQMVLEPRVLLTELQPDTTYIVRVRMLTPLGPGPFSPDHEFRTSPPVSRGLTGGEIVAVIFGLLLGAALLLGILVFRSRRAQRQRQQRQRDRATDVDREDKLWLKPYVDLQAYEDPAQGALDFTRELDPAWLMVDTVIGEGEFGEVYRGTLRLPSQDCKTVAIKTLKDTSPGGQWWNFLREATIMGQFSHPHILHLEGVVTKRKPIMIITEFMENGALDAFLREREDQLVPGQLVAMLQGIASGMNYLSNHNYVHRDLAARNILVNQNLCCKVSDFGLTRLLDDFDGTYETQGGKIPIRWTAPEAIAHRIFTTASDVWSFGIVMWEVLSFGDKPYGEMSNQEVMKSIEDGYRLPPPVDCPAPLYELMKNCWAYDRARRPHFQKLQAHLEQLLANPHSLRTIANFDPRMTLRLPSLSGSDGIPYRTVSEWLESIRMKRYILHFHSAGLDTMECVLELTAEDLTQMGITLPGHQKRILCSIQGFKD

IC50 [1]: > 10 µM | IC50 [2]: > 10 µM | IC50 [3]: 1.09 µM
SMILES: COc1cc(F)ccc1-c1cc(Nc2cc(CS(C)(=N)=O)ccn2)ncc1F (stereo not drawn) [BAY-1251152]

DIA-MS / % Intensity (30 µM/DMSO) [4]: 12.29% | DIA-MS / % Intensity (30 µM/DMSO) [5]: 39.55% | DIA-MS / % Intensity (30 µM/DMSO) [6]: 47.56% | DIA-MS / % Intensity (30 µM/DMSO) [7]: 35.82% | DIA-MS / % Intensity (30 µM/DMSO) [8]: 33.27% | DIA-MS / % Intensity (30 µM/DMSO) [9]: 31.25% | DIA-MS / % Intensity (30 µM/DMSO) [10]: 1.98%
SMILES: Cc1nc(Nc2ncc(C(=O)Nc3c(C)cccc3Cl)s2)cc(N2CCN(CCO)CC2)n1 [dasatinib]

IC50 [11]: > 10 µM | IC50 [12]: > 10 µM
SMILES: COc1cc(F)ccc1-c1ncnc(Nc2cccc(C[S@](C)(=N)=O)c2)n1 [BAY-1143572]
